Where two headings read alike, the source gives them in different places.
Experiments:
[1] = system: AKT; assay: Immunoblot of AKT phosphorylation in insulin/EGF-treated MCF-7 and A2780-CP cells; type: cell-based; settings: AIM-100 overnight (3 μM), insulin or EGF stimulated
Method: (§1) FIGS. 3A-3B are images of immunoblots of lysates from serum starved MCF-7 and A2780-CP cells treated (or untreated) with insulin or EGF (10 ng/ml) and AIM-100 (3 μM, overnight) that were immunoblotted with pTyr176-AKT (top panel), pSer473-AKT (2nd panel), pThr308-AKT (3rd panel), pTyr284-Ack1 (4th panel) and tubulin (bottom panel).
(§2) To assess the potential inhibition of Ack1 activity, MCF-7 (breast) and A2780-CP (Ovary) cells were treated with AIM-100 overnight. Cells were either untreated or treated with Insulin (for 30 mins) or EGF (15 min) followed by immunoblotting of lysates with pTyr284-Ack1 antibody.

[2] = system: xenograft tumor; assay: Xenograft tumor growth; settings: in vivo
[3] = system: pTyr176-AKT; assay: Affinity Purification coupled ELISA for pTyr176-AKT in MDA-MB-231; type: cell-based; settings: MDA-MB-231 cells treated with inhibitor
Method: FIG. 6 is a bar graph showing Affinity Purification coupled ELISA for pTyr176-AKT detection in TNBC derived cell line MDA-MB-231. MDA-MB-231 cell lysates were incubated with streptavidin beads with AKT peptide. The AKT peptides were eluted and phosphorylation was detected using ELISA.
Towards detecting pY176-AKT in TNBC derived cell lines, MDA-MB-231 (1×10^4 cells) were lysed in reaction buffer containing phosphatase and protease inhibitors and lysates were quantitated. Biotinylated AKT peptide was incubated with streptavidin beads for 1 hours, beads were washed and the AKT peptide coated beads were incubated with cell lysates for 1 hours at room temperature. The beads were washed in PBST and the bound peptides were eluted. To elute the bound biotinylated AKT peptide from Streptavidin Beads, Streptavidin Beads were resuspended in 10 mM NaCl containing solution followed by heating the mix at 75° C. for 2-3 minutes, as described in literature (33). The eluted AKT peptides were immobilized onto streptaviding plates and presence of phospho-peptides was detected by ELISA described above in step I.

[4] = molecular target: Ack1 (Homo sapiens, UniProt Q07912); type: cell-based; settings: MCF-7 and A2780-CP cells, AIM-100 overnight (3 μM), insulin or EGF stimulated
Chain of Ack1 (Homo sapiens, UniProt Q07912) (Q07912 whole entry): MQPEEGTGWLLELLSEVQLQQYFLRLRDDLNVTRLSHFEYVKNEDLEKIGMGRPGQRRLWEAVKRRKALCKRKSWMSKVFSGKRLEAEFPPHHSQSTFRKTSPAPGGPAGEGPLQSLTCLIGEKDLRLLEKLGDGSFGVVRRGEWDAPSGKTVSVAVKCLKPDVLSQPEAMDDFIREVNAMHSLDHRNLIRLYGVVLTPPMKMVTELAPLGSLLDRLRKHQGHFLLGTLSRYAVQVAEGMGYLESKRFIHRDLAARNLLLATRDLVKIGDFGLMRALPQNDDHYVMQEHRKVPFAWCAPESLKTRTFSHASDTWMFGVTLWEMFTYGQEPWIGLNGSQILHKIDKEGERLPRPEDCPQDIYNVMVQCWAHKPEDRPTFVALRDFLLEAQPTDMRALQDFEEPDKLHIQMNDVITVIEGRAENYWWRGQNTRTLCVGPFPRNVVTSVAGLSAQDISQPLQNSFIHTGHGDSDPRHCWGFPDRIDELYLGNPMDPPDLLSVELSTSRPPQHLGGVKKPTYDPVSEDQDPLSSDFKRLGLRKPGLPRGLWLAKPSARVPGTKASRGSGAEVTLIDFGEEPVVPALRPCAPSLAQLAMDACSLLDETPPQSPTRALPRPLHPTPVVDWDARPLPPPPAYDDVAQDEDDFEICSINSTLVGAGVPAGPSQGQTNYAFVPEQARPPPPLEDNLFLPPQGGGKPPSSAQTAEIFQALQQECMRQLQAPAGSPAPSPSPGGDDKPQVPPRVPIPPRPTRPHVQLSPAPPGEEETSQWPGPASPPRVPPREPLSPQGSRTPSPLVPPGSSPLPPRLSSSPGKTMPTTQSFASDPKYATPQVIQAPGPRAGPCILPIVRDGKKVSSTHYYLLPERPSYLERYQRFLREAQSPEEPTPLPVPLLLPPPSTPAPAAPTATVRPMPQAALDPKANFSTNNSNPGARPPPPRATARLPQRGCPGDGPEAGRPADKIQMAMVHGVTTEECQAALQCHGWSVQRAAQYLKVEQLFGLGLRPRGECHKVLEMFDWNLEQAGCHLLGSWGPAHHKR
Method: as §1, §2

[5] = system: MDA-MB-468 cell line; assay: Cell growth assay (WST1); type: cell-based; settings: MDA-MB-468, 72 hours
Method: (§3) Experiment was performed twice with 8 replicates, a representative data set is shown.
(§4) To determine whether inhibition of the Ack1/AKT signaling pathway affects TNBC-derived cancer cell proliferation, MDA-MB-231 and MDA-MB-468 cell lines were treated with increasing concentrations of PLX-4032 or AIM-100. A cell growth assay was performed by adding solution of WST1 to 96 wells (5×10^3 cells) and incubation for 1 h. The cell viability as a function of mitochondrial activity in living cells was measured spectrophotometrically at a wavelength of 450 nm.

[6] = system: MDA-MB-231 cell line; assay: Cell growth assay (WST1); type: cell-based; settings: MDA-MB-231, 72 hours, read-out: IG50 (cell growth)
Method: as §3, §4

[7] = molecular target: purified Ack1 kinase (Homo sapiens, UniProt Q07912); settings: inhibitor 50 nM, Ack1 50 nM, 5 uM ATP, 1 hour
Chain of purified Ack1 kinase (Q07912 whole entry): as above
Method: The peptides sequence is derived from the region that is recognized by Ack1 leading to AKT Tyr176-phosphorylation and activation (13, 15, 17). The phospho-AKT peptide was used as a positive control and as a standard for quantitation of pT176-AKT in tissue samples.
The AKT peptides were diluted to final concentration of 1 uM in phosphate buffered saline (PBS) and immobilized onto streptavidin plates (R & D systems) for 1 hour. […] After 1 hour of incubation, plates were washed in PBST and secondary antibody (HRP-conjugated anti-rabbit antibody diluted in BSA) was added. After 1 hour, plates were washed in PBST and devoped using OPD substrate (Sigma) and read at 450 nm.

[8] = system: Ack1; assay: Ack1 autoactivation in transfected HEK293 cells (HA immunoprecipitation, pTyr immunoblot); settings: HEK293 cells transfected with HA-tagged Ack1 WT/point mutants, 5 uM overnight
Method: Immunoprecipitation with HA-beads followed by immunoblotting with pTyr (top and middle panel) or Ack1 (bottom panel) antibodies was performed.
Site directed mutagenesis was performed and HA-tagged point mutants were generated. HEK293 cells were transfected, grown in growth factor free media, followed by immunoprecipitation with HA-beads.

`c1ccc(-c2oc3ncnc(NC[C@@H]4CCCO4)c3c2-c2ccccc2)cc1` [AIM-100] was tested, and the “AKT Tyr176/Ser473 and Thr308-phosphorylations” value [1] was “significant decrease”, the xenograft tumor growth [2] was “suppresses” and the “pTyr176-AKT levels (Affinity Purification Coupled ELISA)” value [3] was “significant decrease”. For the same molecule, the “endogenous pTyr284-Ack1 levels” value [4] was “significantly decreased”, the “cellular cytotoxicity (in words)” value [5] was “rather resistant” and the IC50 [6] was about 16 µM. For the same molecule, the “AKT Tyr176-phosphorylation (ELISA)” value [7] was “significant decrease” and the “Ack1 activation (pTyr immunoblot)” value [8] was “completely abrogated Ack1 activation”.

For `CCCS(=O)(=O)Nc1ccc(F)c(C(=O)c2c[nH]c3ncc(-c4ccc(Cl)cc4)cc23)c1F` [PLX4032, Vemurafenib], the “pTyr176-AKT levels (Affinity Purification Coupled ELISA)” value [3] was “significant decrease”, the IC50 ([5]; Homo sapiens, read-out: IG50 (cell growth)) was about 13 µM and the IC50 ([6]; Homo sapiens) was about 13 µM. For the same molecule, the “Ack1 activation (pTyr immunoblot)” value [8] was “completely abrogated Ack1 activation”.
